Experiment [1] relates to ELAM-1 expression in human umbilical cord vascular endothelial cells. Nature of the experiment: Inhibitory activity of adhesion molecule expression (ELAM-1, cell-ELISA). Format: cell-based. Particulars: TNFα 1 ng/ml, 37° C., 3 hours. How it is done:
(§1) Inhibitory activity of adhesion molecule expression
(§2) Test method: To human umbilical cord vascular endothelial cells (purchased from Kurabo), cultured on gelatin-coated plates, compounds at various concentrations (test compounds) were added, followed by incubation at 37° C. for 15 minutes. Human tumor necrosis factor (TNFα, purchased from Genzyme) was then added to a final concentration of 1 ng/ml, followed by incubation at 37° C. for 3 hours for ELAM-1 expression or for 5 hours for ICAM-1 expression. After the reaction, cells were fixed with glutaraldehyde; the amounts of ELAM-1 and ICAM-1 expressed were determined by cell-ELISA. Anti-ELAM-1 antibody BBA-2 and an anti-ICAM-1 antibody BBA-4 were used as the first antibodies for the defection of ELAM-1 and ICAM-1, respectively, and horse radish peroxidase-labeled rabbit anti-mouse IgG antibody was used as the second antibody to determine the amount of adhesion molecules expressed on cells observed. The compound concentration at which 50% expression was expressed as the 50% inhibitory concentration (IC50), with the amount of expression in the absence of compounds as 100 and the amount of expression in the absence of TNFα as 0.
On the technique in general: An ELISA detects its analyte on a solid surface through an enzyme-linked reagent.

For experiment [2], the system named is ICAM-1 expression in human umbilical cord vascular endothelial cells. Nature of the experiment: Inhibitory activity of adhesion molecule expression (ICAM-1, cell-ELISA). The format is cell-based. Particulars: TNFα 1 ng/ml, 37° C., 5 hours. How it is done: as §1, §2

pIC50: −log10 of the molar value.

As for `CCCC=C1SC(=O)N(CCSc2cccc3nccn23)C1=O` [compound 5], the pIC50 – broadly, −log10 of the IC50, conventionally taken in molar units – was 5.28 in experiment [1] and 5.46 in experiment [2].

Regarding `CCCCCCCCCC=C1SC(=O)N(CCCCSc2cccc3nccn23)C1=O` [compound 6], the pIC50 in experiment [1] was 5.14; in experiment [2], 5.20.

With `CCCC=C1SC(=O)N(CCCCc2cccc3nccn23)C1=O` [compound 7], the pIC50 is 5.64 in experiment [1] and 5.51 in experiment [2].

In the case of `CCCC=C1SC(=O)N(CCCCOc2cccc3nccn23)C1=O` [compound 8], the pIC50 in experiment [1] is 5.42; in experiment [2] it was 5.36.

As for `CCCC=C1OC(=O)N(CCCCSc2cccc3nccn23)C1=O` [compound 9], the values for the pIC50 in experiment [1] and in experiment [2] were 5.59 and 5.62, respectively.

Take `CCC=C1SC(=O)N(CCCCSc2cccc3nccn23)C1=O` [compound 10]: the figures for the pIC50 in experiment [1] and in experiment [2] were 5.64 and 5.62, respectively.

Regarding `CC=C1SC(=O)N(CCCCSc2cccc3nccn23)C1=O` [compound 11], the negative-log IC50 (pIC50) in experiment [1] is 5.72; in experiment [2] it was 5.54.

As for `CCCC=C1SC(=O)N(CCCc2cccc3nccn23)C1=O` [compound 12], the values for the pIC50 in experiment [1] and in experiment [2] were 5.36 and 5.31, respectively.

As to `CCCC=C1SC(=O)N(CSc2cccc3nccn23)C1=O` [compound 13], the pIC50 in experiment [1] was 5.29; in experiment [2], 5.20.

For `CCCC=C1SC(=O)N(CCc2cccc3nccn23)C1=O` [compound 14], the pIC50 in experiment [1] is 5.29; in experiment [2], 5.21.

In the case of `CCCC=C1SC(=O)N(Cc2cccc3nccn23)C1=O` [compound 15], the figures for the pIC50 in experiment [1] and in experiment [2] were 5.21 and 5.15, respectively.

`O=C1SC(=CCCc2ccccc2)C(=O)N1CCCCSc1cccc2nccn12` [compound 19]: the negative-log IC50 (pIC50) in experiment [1] was 5.52; in experiment [2] it was 5.41.

Consider `O=C1SC(=CCCCc2ccccc2)C(=O)N1CCCCSc1cccc2nccn12` [compound 21], for which the pIC50 in experiment [1] is 5.48; in experiment [2], 5.40.

On to `CCCC=C1SC(=O)N(CCCCSc2cccc3nc(C)cn23)C1=O` [compound 23], for which the negative-log IC50 (pIC50) in experiment [1] was 5.44; in experiment [2] it was 5.15.

As to `CCCC=C1SC(=O)N(CCCCSc2nccc3nccn23)C1=O` [compound 25], the negative logarithm of the IC50 (pIC50) in experiment [1] is 5.40; in experiment [2], 5.10.

Take `CCCC=C1SC(=O)N(CCCCOc2cccn3cc(-c4ccccc4)nc23)C1=O` [compound 26]: the negative-log IC50 (pIC50) is 5.39 in experiment [1] and 5.43 in experiment [2].

Consider `CCCC=C1SC(=O)N(CCCCOc2cccn3cc(C(=O)OCC)nc23)C1=O` [compound 27], for which the values for the negative-log IC50 (pIC50) in experiment [1] and in experiment [2] were 5.30 and 5.19, respectively.

Consider `O=C1OC(=CCCc2ccccc2)C(=O)N1CCCCOc1cccn2ccnc12` [compound 32], for which the pIC50 is 5.49 in experiment [1] and 5.24 in experiment [2].

For the compound `O=C1OC(=CCCc2ccccc2)C(=O)N1CCCCSc1cccc2nccn12` [compound 33], the negative-log IC50 (pIC50) in experiment [1] was 5.55; in experiment [2], 5.20.

Take `CCCC=C1SC(=O)N(CCCCOc2cccn3c(C(=O)C(F)(F)F)cnc23)C1=O` [compound 34]: the values for the negative-log IC50 (pIC50) in experiment [1] and in experiment [2] were 5.28 and 5.21, respectively.

Regarding `CCCC=C1SC(=O)N(CCCCSc2cccc3ncc(C(=O)C(F)(F)F)n23)C1=O` [compound 35], the figures for the negative-log IC50 (pIC50) in experiment [1] and in experiment [2] were 5.47 and 5.34, respectively.

On to `O=c1c(-c2ccccc2)c2n(c(=O)n1CCCCSc1cccc3nccn13)CCS2(=O)=O` [compound 36], for which the pIC50 was 5.68 in experiment [1] and 5.43 in experiment [2].

On to `O=C1SC(=CCCc2cccnc2)C(=O)N1CCCCSc1cccc2nccn12` [compound 38], for which the pIC50 in experiment [1] is 5.47; in experiment [2], 5.43.

As for `O=C1SC(=CCCc2cccnc2)C(=O)N1CCCCOc1cccn2ccnc12` [compound 39], the figures for the negative-log IC50 (pIC50) in experiment [1] and in experiment [2] were 5.48 and 5.62, respectively.

As to `Cc1c2n(c(=O)n(CCCCSc3cccc4nccn34)c1=O)CCCS2(=O)=O` [compound 40], the figures for the negative-log IC50 (pIC50) in experiment [1] and in experiment [2] were 5.96 and 5.74, respectively.

For `O=c1c(Cc2ccccc2)c2n(c(=O)n1CCCCSc1cccc3nccn13)CCCS2(=O)=O` [compound 41], the figures for the pIC50 in experiment [1] and in experiment [2] were 6.30 and 6.05, respectively.

On to `CC(C)c1c2n(c(=O)n(CCCCSc3cccc4nccn34)c1=O)CCCS2(=O)=O` [compound 42], for which the negative-log IC50 (pIC50) in experiment [1] is 6.00; in experiment [2], 5.82.

With `O=c1cc2n(c(=O)n1CCCCSc1cccc3nccn13)CCCS2(=O)=O` [compound 43], the pIC50 in experiment [1] was 5.66; in experiment [2], 5.46.

Take `CCCC=C1SC(=O)N(CCCOc2cccn3ccnc23)C1=O` [compound 47]: the pIC50 in experiment [1] is 5.52; in experiment [2], 5.38.

As for `CCCC=C1SC(=O)N(CCCCOc2cccn3cc(C)nc23)C1=O` [compound 48], the pIC50 in experiment [1] is 5.34; in experiment [2], 5.19.

For `CCCC=C1SC(=O)N(CCCCSc2cccc3ncc(Br)n23)C1=O` [compound 50], the pIC50 in experiment [1] was 5.33; in experiment [2] it was 5.16.

Consider `O=c1c(-c2ccccc2)c2n(c(=O)n1CCCCSc1cccc3nccn13)CCC[S+]2[O-]` (centres unmarked) [compound 51], for which the values for the pIC50 in experiment [1] and in experiment [2] were 5.55 and 5.17, respectively.

In the case of `O=C(NCCCn1c(=O)c(-c2ccccc2)c2n(c1=O)CCCS2(=O)=O)OCCc1cccc2nccn12` [compound 53], the pIC50 in experiment [1] was 5.21; in experiment [2], 5.20.

As for `CCCC=C1SC(=O)N(CCC(C)(C)CCSc2cccc3nccn23)C1=O` [compound 54], the pIC50 in experiment [1] is 5.21; in experiment [2], 5.30.

Take `CCCC=C1SC(=O)N(CCC2(CCSc3cccc4nccn34)CCCC2)C1=O` [compound 55]: the pIC50 in experiment [1] is 5.14; in experiment [2], 5.26.

As to `CN(C)Cc1cnc2cccc(SCCCCn3c(=O)c(-c4ccccc4)c4n(c3=O)CCCS4(=O)=O)n12` [compound 56], the negative logarithm of the IC50 (pIC50) in experiment [1] was 5.41; in experiment [2], 5.24.

Turning to `CCCCCCC=C1SC(=O)N(CCCCSc2cccc3nccn23)C1=O` [compound 57], the pIC50 in experiment [1] was 5.10; in experiment [2] it was 5.15.

Turning to `CCCCCCCC=C1SC(=O)N(CCCCSc2cccc3nccn23)C1=O` [compound 60], the negative-log IC50 (pIC50) in experiment [1] is 5.04; in experiment [2], 5.05.

Take `O=C1SC(=CCCCCc2ccccc2)C(=O)N1CCCCSc1cccc2nccn12` [compound 65]: the pIC50 in experiment [1] was 5.30; in experiment [2], 5.28.

For the compound `O=C1SC(=CCCc2ccccc2)C(=O)N1CCCCOc1cccn2ccnc12` [compound 67], the pIC50 in experiment [1] was 5.47; in experiment [2], 5.41.

For the compound `CCC=C1SC(=O)N(CCCCOc2cccn3ccnc23)C1=O` [compound 68], the pIC50 is 5.49 in experiment [1] and 5.30 in experiment [2].

For the compound `CCCCC=C1SC(=O)N(CCCCOc2cccn3ccnc23)C1=O` [compound 69], the figures for the pIC50 in experiment [1] and in experiment [2] were 5.40 and 5.21, respectively.

Consider `CCCCCC=C1SC(=O)N(CCCCOc2cccn3ccnc23)C1=O` [compound 70], for which the figures for the pIC50 in experiment [1] and in experiment [2] were 5.28 and 5.16, respectively.

On to `CCCCCCCC=C1SC(=O)N(CCCCOc2cccn3ccnc23)C1=O` [compound 71], for which the pIC50 was 5.34 in experiment [1] and 5.28 in experiment [2].

For the compound `CCCCCCCCCC=C1SC(=O)N(CCCCOc2cccn3ccnc23)C1=O` [compound 72], the pIC50 in experiment [1] was 5.19; in experiment [2] it was 5.25.

Turning to `CCCCCC=C1OC(=O)N(CCCCOc2cccn3ccnc23)C1=O` [compound 75], the figures for the negative-log IC50 (pIC50) in experiment [1] and in experiment [2] were 5.46 and 5.21, respectively.

Take `CCC/C=C1\OC(=O)N(CCCCOc2cccn3c(C(=O)C(F)(F)F)cnc23)C1=O` [compound 76]: the negative-log IC50 (pIC50) was 5.17 in experiment [1] and 5.15 in experiment [2].

Consider `CCC/C=C1/OC(=O)N(CCCCOc2cccn3c(C(=O)C(F)(F)F)cnc23)C1=O` [compound 77], for which the pIC50 was 5.20 in experiment [1] and 5.22 in experiment [2].

Take `O=C(CCCSc1cccc2nccn12)NCCCn1c(=O)c(-c2ccccc2)c2n(c1=O)CCCS2(=O)=O` [compound 79]: the negative-log IC50 (pIC50) in experiment [1] was 5.21; in experiment [2], 5.23.

On to `COc1ccc(CCC=C2SC(=O)N(CCCCSc3cccc4nccn34)C2=O)cc1` [compound 80], for which the negative-log IC50 (pIC50) was 5.34 in experiment [1] and 5.39 in experiment [2].

As for `COc1ccccc1CCC=C1SC(=O)N(CCCCSc2cccc3nccn23)C1=O` [compound 81], the pIC50 in experiment [1] is 5.21; in experiment [2], 5.37.

Turning to `O=C1SC(=CCCc2ccc(F)cc2)C(=O)N1CCCCSc1cccc2nccn12` [compound 82], the pIC50 is 5.37 in experiment [1] and 5.44 in experiment [2].

Regarding `O=C1SC(=CCCc2ccccc2F)C(=O)N1CCCCSc1cccc2nccn12` [compound 83], the pIC50 is 5.43 in experiment [1] and 5.42 in experiment [2].

Consider `O=C1SC(=CCCc2ccccc2Cl)C(=O)N1CCCCSc1cccc2nccn12` [compound 84], for which the pIC50 in experiment [1] was 5.39; in experiment [2] it was 5.44.

As for `O=C1SC(=CCCc2ccc(Cl)cc2)C(=O)N1CCCCSc1cccc2nccn12` [compound 85], the pIC50 in experiment [1] was 5.37; in experiment [2], 5.41.

Values taken from US5840732A, “Imidazopyridine or imidazopyrimidine compounds, their production and use” (Takeda Chemical Industries Ltd., priority 1994, dated 1998).
